IC50 data for twelve compounds are collected here from patent publication US11739098B2 (BRISTOL-MYERS SQUIBB COMPANY, priority 2017, dated 2023).

What all share (assay type): cell-based
For one assay, the target named is T1, human TLR8 (Homo sapiens, UniProt Q9NR97).
T1 construct: host or cells: HEK-Blue cells (HEK293-derived reporter line)
T1 sequence (Q9NR97 27-1041): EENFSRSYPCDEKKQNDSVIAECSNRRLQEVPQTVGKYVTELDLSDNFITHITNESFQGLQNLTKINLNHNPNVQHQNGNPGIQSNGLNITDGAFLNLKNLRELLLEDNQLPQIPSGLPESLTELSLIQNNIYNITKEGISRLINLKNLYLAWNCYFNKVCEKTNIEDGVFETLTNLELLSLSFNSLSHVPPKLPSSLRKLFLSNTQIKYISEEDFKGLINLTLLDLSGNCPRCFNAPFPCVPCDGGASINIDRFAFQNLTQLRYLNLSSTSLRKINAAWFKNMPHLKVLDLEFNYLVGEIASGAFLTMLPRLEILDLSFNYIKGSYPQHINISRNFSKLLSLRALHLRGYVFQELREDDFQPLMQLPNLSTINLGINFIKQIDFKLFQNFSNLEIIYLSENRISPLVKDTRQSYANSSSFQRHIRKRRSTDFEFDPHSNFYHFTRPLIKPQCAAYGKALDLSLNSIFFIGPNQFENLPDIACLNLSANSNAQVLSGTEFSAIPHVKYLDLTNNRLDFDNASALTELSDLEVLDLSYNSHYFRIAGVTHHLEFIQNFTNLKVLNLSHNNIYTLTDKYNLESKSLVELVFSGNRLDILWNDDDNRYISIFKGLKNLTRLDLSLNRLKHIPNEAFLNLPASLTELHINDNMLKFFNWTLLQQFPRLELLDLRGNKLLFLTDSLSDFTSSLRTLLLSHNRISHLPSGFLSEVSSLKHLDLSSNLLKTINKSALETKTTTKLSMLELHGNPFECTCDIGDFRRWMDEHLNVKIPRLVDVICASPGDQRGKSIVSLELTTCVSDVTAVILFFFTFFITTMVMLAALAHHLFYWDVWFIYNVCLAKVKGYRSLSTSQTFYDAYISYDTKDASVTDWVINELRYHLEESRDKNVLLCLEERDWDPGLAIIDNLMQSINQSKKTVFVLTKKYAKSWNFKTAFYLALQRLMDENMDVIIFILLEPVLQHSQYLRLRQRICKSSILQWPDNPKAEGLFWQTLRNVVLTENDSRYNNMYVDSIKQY
Description: TLR8 inhibition reporter assay (HEK-Blue cells, SEAP reporter, R848 stimulation). Particulars: HEK-Blue cells overexpressing human TLR8, SEAP reporter, R848 15.9 μM. A digest of the protocol:
(§1)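 HEK-Blue cells overexpressing the receptor, with NF-κB/AP-1-driven SEAP, were pre-treated 30 min at room temperature with compound (0.05 nM–50 μM), then stimulated with gardiquimod 7.5 μM (TLR7), R848 15.9 μM (TLR8) or ODN2006 5 nM (TLR9). SEAP was read after 22 h at 37 °C as percent inhibition.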
In general terms: A reporter such as luciferase makes a cellular process visible.

For another assay, the target named is T2, human TLR7 (Homo sapiens, UniProt Q9NYK1).
T2 construct: host or cells: HEK-Blue cells (HEK293-derived reporter line)
T2 sequence (Q9NYK1 27-1049): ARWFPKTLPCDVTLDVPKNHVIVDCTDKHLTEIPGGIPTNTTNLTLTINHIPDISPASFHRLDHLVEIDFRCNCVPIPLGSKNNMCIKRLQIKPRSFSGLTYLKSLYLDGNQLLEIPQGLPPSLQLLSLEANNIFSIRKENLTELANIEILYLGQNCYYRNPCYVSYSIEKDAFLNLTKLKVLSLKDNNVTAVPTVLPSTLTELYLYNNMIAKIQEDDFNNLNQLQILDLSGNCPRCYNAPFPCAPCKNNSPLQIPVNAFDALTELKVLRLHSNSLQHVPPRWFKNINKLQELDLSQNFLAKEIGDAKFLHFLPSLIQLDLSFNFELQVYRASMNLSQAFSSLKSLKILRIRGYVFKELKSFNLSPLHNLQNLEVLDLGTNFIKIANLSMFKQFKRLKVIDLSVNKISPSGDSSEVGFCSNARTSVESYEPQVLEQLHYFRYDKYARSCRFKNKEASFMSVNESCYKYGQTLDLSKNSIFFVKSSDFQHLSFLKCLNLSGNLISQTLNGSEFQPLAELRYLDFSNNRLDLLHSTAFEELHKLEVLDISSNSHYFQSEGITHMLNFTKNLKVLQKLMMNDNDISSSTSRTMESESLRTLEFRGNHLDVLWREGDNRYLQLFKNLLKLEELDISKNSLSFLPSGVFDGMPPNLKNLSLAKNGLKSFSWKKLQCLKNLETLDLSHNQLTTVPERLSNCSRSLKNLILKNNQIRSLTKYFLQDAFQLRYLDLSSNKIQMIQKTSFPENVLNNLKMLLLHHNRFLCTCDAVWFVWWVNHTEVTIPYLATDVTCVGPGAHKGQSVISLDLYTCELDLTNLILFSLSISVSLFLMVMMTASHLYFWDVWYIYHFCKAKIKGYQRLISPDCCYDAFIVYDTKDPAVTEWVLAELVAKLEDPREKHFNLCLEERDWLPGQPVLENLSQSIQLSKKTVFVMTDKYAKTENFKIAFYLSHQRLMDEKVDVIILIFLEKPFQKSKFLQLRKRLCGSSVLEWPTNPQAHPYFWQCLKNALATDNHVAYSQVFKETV
Briefly: TLR7 inhibition reporter assay (HEK-Blue cells, SEAP reporter, gardiquimod stimulation). Particulars: HEK-Blue cells overexpressing human TLR7, SEAP reporter, gardiquimod 7.5 μM. In a few lines:
as §1

The next assay addresses T3, human TLR9 (Homo sapiens, UniProt Q9NR96).
T3 construct: host or cells: HEK-Blue cells (HEK293-derived reporter line)
T3 sequence (Q9NR96 26-1032): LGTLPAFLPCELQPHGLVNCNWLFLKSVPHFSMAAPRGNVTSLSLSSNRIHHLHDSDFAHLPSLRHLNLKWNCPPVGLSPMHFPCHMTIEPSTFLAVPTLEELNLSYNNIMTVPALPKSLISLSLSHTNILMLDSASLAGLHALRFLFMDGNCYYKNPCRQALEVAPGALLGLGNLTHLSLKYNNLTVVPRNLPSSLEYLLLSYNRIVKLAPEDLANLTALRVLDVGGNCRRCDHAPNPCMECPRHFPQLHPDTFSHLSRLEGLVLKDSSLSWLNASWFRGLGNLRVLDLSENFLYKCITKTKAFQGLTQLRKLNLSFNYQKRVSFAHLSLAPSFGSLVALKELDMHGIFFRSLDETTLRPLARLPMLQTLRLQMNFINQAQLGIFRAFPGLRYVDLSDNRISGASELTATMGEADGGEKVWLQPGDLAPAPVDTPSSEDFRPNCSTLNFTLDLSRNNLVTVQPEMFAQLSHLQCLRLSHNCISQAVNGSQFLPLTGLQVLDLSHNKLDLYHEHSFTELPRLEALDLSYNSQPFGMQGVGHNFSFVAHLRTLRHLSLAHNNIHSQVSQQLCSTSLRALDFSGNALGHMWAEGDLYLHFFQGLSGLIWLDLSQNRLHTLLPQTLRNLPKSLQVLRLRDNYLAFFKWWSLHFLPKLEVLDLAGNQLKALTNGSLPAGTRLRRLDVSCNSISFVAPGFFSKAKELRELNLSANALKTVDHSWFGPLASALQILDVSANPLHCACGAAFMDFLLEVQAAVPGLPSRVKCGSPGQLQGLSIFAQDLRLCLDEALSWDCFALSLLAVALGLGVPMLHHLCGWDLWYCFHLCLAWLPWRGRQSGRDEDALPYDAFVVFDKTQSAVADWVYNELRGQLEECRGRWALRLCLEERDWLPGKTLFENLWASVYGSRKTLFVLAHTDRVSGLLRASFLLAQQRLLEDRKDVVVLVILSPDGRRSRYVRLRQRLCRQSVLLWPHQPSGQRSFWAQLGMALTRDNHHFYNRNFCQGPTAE
Description: TLR9 inhibition reporter assay (HEK-Blue cells, SEAP reporter, ODN2006 stimulation). Particulars: HEK-Blue cells overexpressing human TLR9, SEAP reporter, ODN2006 5 nM. In a few lines:
as §1

As a reminder, the IC50 is the concentration needed to halve the response being measured. For `CC(C)c1c(-c2cnc3ncnn3c2)[nH]c2ccc(C3CCN(CC(=O)N(C)C)CC3)cc12` [Example 422, 2-(4-(2-([1,2,4]triazolo[1,5-a]pyrimidin-6-yl)-3-isopropyl-1H-indol-5-yl)piperidin-1-yl)-N,N-dimethylacetamide], the IC50 on human TLR8 was 0.1 to 1 µM; at human TLR7 it was < 0.1 µM; against human TLR9, 1 to 50 µM.
Take `CNC(=O)CN1CCC(c2ccc3[nH]c(-c4cnc5ncnn5c4)c(C(C)C)c3c2)CC1` [Example 423, 2-(4-(2-([1,2,4]triazolo[1,5-a]pyrimidin-6-yl)-3-isopropyl-1H-indol-5-yl)piperidin-1-yl)-N-methylacetamide]: the IC50 on human TLR8 is < 0.1 µM; against human TLR7, < 0.1 µM; against human TLR9, 1 to 50 µM.
`CC(C)c1c(-c2ncnn3cccc23)[nH]c2ccc(C3CCN(CC(=O)N(C)C)CC3)cc12` [Example 424, 2-(4-(3-isopropyl-2-(pyrrolo[2,1-f][1,2,4]triazin-4-yl)-1H-indol-5-yl)piperidin-1-yl)-N,N-dimethylacetamide]: the IC50 against human TLR8, against human TLR7 and against human TLR9 was 0.1 to 1 µM throughout.
`CC(C)c1c(-c2ccn3nccc3n2)[nH]c2ccc(C3CCN(CC(=O)N(C)C)CC3)cc12` [Example 425, 2-(4-(3-isopropyl-2-(pyrazolo[1,5-a]pyrimidin-5-yl)-1H-indol-5-yl)piperidin-1-yl)-N,N-dimethylacetamide]: the IC50 against human TLR8 fell in the range of 0.1 to 1 µM; on human TLR7, 0.1 to 1 µM; against human TLR9 it was 1 to 50 µM.
As to `CC(C)c1c(-c2cnc3cnccn23)[nH]c2ccc(C3CCN(CC(=O)N(C)C)CC3)cc12` [Example 426, 2-(4-(2-(imidazo[1,2-a]pyrazin-3-yl)-3-isopropyl-1H-indol-5-yl)piperidin-1-yl)-N,N-dimethylacetamide], the IC50 was 1 to 50 µM against human TLR8, > 3.13 µM on human TLR7 and 1 to 50 µM against human TLR9.
Consider `CC(C)c1c(-c2cn3ccnc3cc2C(F)(F)F)[nH]c2ccc(C3CCN(CC(=O)N(C)C)CC3)cc12` [Example 427, 2-(4-(3-isopropyl-2-(7-(trifluoromethyl)imidazo[1,2-a]pyridin-6-yl)-1H-indol-5-yl)piperidin-1-yl)-N,N-dimethylacetamide], for which the IC50 is < 0.1 µM against human TLR8, 0.1 to 1 µM on human TLR7 and 1 to 50 µM on human TLR9.
With `CC(C)c1c(-c2cn3ccnc3cc2Cl)[nH]c2ccc(C3CCN(CC(=O)N(C)C)CC3)cc12` [Example 428, 2-(4-(2-(7-chloroimidazo[1,2-a]pyridin-6-yl)-3-isopropyl-1H-indol-5-yl)piperidin-1-yl)-N,N-dimethylacetamide], the values for the IC50 on human TLR8, on human TLR7 and against human TLR9 were < 0.1 µM, < 0.1 µM and 1 to 50 µM, respectively.
With `CNC(=O)CN1CCC(c2ccc3[nH]c(-c4cc(C)c5nc(C)c(C)n5c4)c(C(C)C)c3c2)CC1` [Example 429, 2-(4-(3-isopropyl-2-(2,3,8-trimethylimidazo[1,2-a]pyridin-6-yl)-1H-indol-5-yl)piperidin-1-yl)-N-methylacetamide], the values for the concentration for half-maximal inhibition (IC50) at human TLR8, on human TLR7 and against human TLR9 were 0.1 to 1 µM, < 0.1 µM and 0.1 to 1 µM, respectively.
With `Cc1cc(-c2[nH]c3ccc(C4CCN(CC(=O)N(C)C)CC4)cc3c2C(C)C)cn2c(C#N)cnc12` [Example 430, 2-(4-(2-(3-cyano-8-methylimidazo [1,2-a]pyridin-6-yl)-3-isopropyl-1H-indol-5-yl)piperidin-1-yl)-N,N-dimethylacetamide], the values for the IC50 at human TLR8, against human TLR7 and at human TLR9 were < 0.1 µM, 0.1 to 1 µM and 1 to 50 µM, respectively.
In the case of `Cc1cc2nccn2cc1-c1[nH]c2ccc(C3CCN(CC(=O)N(C)C)CC3)cc2c1C(C)C` [Example 431, 2-(4-(3-isopropyl-2-(7-methylimidazo[1,2-a]pyridin-6-yl)-1H-indol-5-yl)piperidin-1-yl)-N,N-dimethylacetamide], the IC50 on human TLR8 is 0.1 to 1 µM; against human TLR7, < 0.1 µM; at human TLR9 it was 1 to 50 µM.
As for `COc1cc(-c2[nH]c3ccc(C4CCN(CC(=O)N(C)C)CC4)cc3c2C(C)C)cn2cc(C(=O)N(C)C)nc12` [Example 432, 6-(5-(1-(2-(dimethylamino)-2-oxoethyl)piperidin-4-yl)-3-isopropyl-1H-indol-2-yl)-8-methoxy-N,N-dimethylimidazo[1,2-a]pyridine-2-carboxamide], the IC50 against human TLR8 is < 0.1 µM; at human TLR7, < 0.1 µM; at human TLR9, 1 to 50 µM.
As for `COc1cc(-c2[nH]c3ccc(C4CCN(CC(=O)N(C)C)CC4)cc3c2C(C)C)cn2ccnc12` [Example 433, 2-(4-(3-isopropyl-2-(8-methoxyimidazo[1,2-a]pyridin-6-yl)-1H-indol-5-yl)piperidin-1-yl)-N,N-dimethylacetamide], the IC50 was < 0.1 µM on human TLR8, < 0.1 µM on human TLR7 and 0.1 to 1 µM against human TLR9.
